In general, melting point refers to the temperature of the solid-liquid transition. A word on the IC50: it is the concentration needed to halve the response being measured.

Data set [1] has as its target T1, glycine binding pocket of the NMDA receptor (Rattus norvegicus, UniProt P35439).
T1 construct: For isolation of the cell membranes, the cortices are homogenized; from tissue; host or cells: rat cerebral cortex membranes (male Sprague-Dawley)
Nature of the data set: [3H]MDL-105,519 displacement studies (rat cortical membranes). The following applies: displacement of 2 nM [3H]-MDL-105,519, rat cortical membranes; read-out: NMDA-MDL 105519-r-CTX - IC50. How it is done: Anaesthetised male Sprague-Dawley rats (200-250 g, Janvier, Le Genest-Isle, France) are decapitated and their brains removed rapidly. […] For isolation of the cell membranes, the cortices are homogenized in 20 volumes of ice-cold 0.32 M sucrose (Sigma-Aldrich, Taufkirchen, Germany) using a glass-Teflon homogenizer. The homogenate is centrifuged at 1000×g for 10 minutes, the pellet is discarded and the supernatant centrifuged at 20,000×g for 20 minutes. The resulting pellet is re-suspended in 20 volumes of distilled water and centrifuged for 20 minutes at 8000×g. The supernatant and the buffy coat are then centrifuged three times (48,000×g for 20 minutes) in the presence of 50 mM Tris-HCl, pH 8.0 (assay buffer). All centrifugation steps are carried out at 4° C. After resuspension in 5 volumes of 50 mM Tris-HCl, pH 7.5, the membrane suspension is frozen rapidly at −80° C. On the day of assay, the membranes are thawed and washed four times by resuspension in 50 mM Tris-HCl, pH 7.5, and centrifugation at 48,000×g for 20 minutes. The final pellet is suspended in assay buffer. […] The final protein concentration used for our studies is 400 μg/ml.
A robotic system designed for binding assays (Tecan Deutschland GmbH, Crailsheim, Germany) is loaded with the membrane solution, solutions for bound control (buffer/DMSO 20%), unlabeled glycine (1 mM) for evaluation of non-specific binding, all compounds to be tested (at 20-fold concentrations), radioligand and respective 96-well plates.
The protein/receptor concentration is held constant whereas the amount of specific bound radioligand is determined using increasing concentrations of ligand.
Firstly, the assay plates are loaded with membrane solution and are shaken at 4° C. The mother plates are then prepared by pipetting the compounds into assay buffer/20% DMSO to obtain the desired final concentrations (dose response curve with five different concentrations, e.g. 10, 3, 1, 0.3, and 0.1 μM). After transferring radioligand into the assay plates, the compounds are added (including the bound and the non-specific binding control). The final DMSO concentration is 1%. The assay plates are incubated and shaken at 4° C. for 1 h, before the mixture is exhausted as rapidly as possible via a vacuum manifold using the Multiscreen HTS glass fibre (type B) filter plates (Millipore, Schwalbach, Germany) under a constant vacuum of 450 mbar. The membranes are washed four times with cold assay buffer ([…]). 50 μL of Ultima Gold scintillation cocktail (PerkinElmer, Rodgau-Jügesheim, Germany) is added to the wet filter plates and incubated at room temperature overnight before counting the disintegration per minutes using a liquid scintillation counter (MicroBeta, PerkinElmer, Rodgau-Jügesheim, Germany).
The residual radioactivity after displacement of the test compound (n=5) is then corrected with respect to the set controls.

Data set [2] addresses NMDA receptor glycine B site (Rattus norvegicus, UniProt P35439). Nature of the data set: Calcium FLIPR studies, rat cortical neurons (NMDA/D-Serine induced intracellular calcium). Also on record: Primary neurons are prepared from cortices of embryonal rats at day 17 of pregnancy; endogenous in cells; host or cells: primary rat cortical neurons (E17, 11-13 DIV). The following applies: rat cortical neurons; stimulation with 30 μM NMDA and 1 μM D-Serine; antagonist pre-incubated 10 min; read-out: NMDA-FLIPR-rCTX-NAM - IC50. It is filed as cell-based. The procedure:
Antagonistic potencies of the test compounds are functionally evaluated using electrophysiological whole cell patch-clamp recordings and/or fluorometric intracellular Ca^2+-imaging (FLIPR) screens.
Sprague-Dawley rat embryos (E 17) are decapitated and neocortices are dissected, trypsinized and carefully triturated. The cell suspension is plated on poly-D-lysine pre-coated 96-well Plates (Greiner, Frickenhausen, Germany) at a cell density of 55.000 cells/well. The neurons are cultivated in Neurobasal media containing B27-Supplement and […] L-Glutamine (Biochrom) at 37° C. in a humidified atmosphere of 5% CO2/95% air. Medium is exchanged completely at day 4 and to 50% on day 7. At the time of experiments neurons are 11-13 days in vitro.
The increase of intracellular calcium after stimulation with 30 μM NMDA and 1 μM D-Serine is measured using the fluorometric imaging plate reader (FLIPR) and the Calcium-4-Kit (both Molecular Devices, Ismaning, Germany). Prior to addition of agonist or antagonist (5 different concentrations, n=5) the medium is aspirated and cells are washed once before loading with 150 μL of loading buffer (1 h at room temperature), consisting of Ca-4 sensitive dye reconstituted in extracellular bath solution, pH 7.3. Subsequently, plates are transferred to FLIPR to detect increases in intracellular calcium after the addition of agonist, measured as relative fluorescence units (RFU). Antagonists are pre-incubated with the cells for 10 min at room temperature before the addition of the agonist and co-agonist.
The fluorescence signal increase after addition of agonist reflects the increase of intracellular calcium. Inconsistencies in the amount of cells per well are normalised by using the spatial uniformity correction of the FLIPR software (Screenworks, Molecular Devices). The mean of replicated temporal data (n=5) is calculated and used for graphical representation. For the evaluation of the antagonistic potency, the calcium changes in response to different concentrations of antagonist are determined using an area under the curve (AUC) calculation. All responses (RFU-values) are determined as percentage of control (=maximum response at 30 μM NMDA and 1 μM D-Serine). IC50 values are calculated according the four parameter logistic equation using GraFit (Erithacus Software).

Turning to `O=C(COc1cc(C(=O)O)cc2cc(Cl)cc(Cl)c12)NCc1ccc(OCc2nnn[nH]2)cc1` [Example 126, 5,7-Dichloro-4-{[4-(1H-tetrazol-5-ylmethoxy)-benzylcarbamoyl]-methoxy}-naphthalene-2-carboxylic acid], the melting point was > 236 °C (dec.).

`O=C(COc1ccccc1NC(=O)COc1cc(C(=O)O)cc2cc(Cl)cc(Cl)c12)NCCO` [Example 134, 5,7-Dichloro-4-({2-[(2-hydroxy-ethylcarbamoyl)-methoxy]-phenylcarbamoyl}-methoxy)-naphthalene-2-carboxylic acid] had a melting point of 217 to 218 °C.

In turn, `NC(=O)c1[nH]cnc1NC(=O)COc1cc(C(=O)O)cc2cc(Cl)cc(Cl)c12` [Example 136, 4-[(5-Carbamoyl-1H-imidazol-4-ylcarbamoyl)-methoxy]-5,7-dichloro-naphthalene-2-carboxylic acid] displayed a melting point of more than 250 °C.

Molecule `O=C(COc1cc(C(=O)O)cc2cc(Cl)cc(Cl)c12)NCc1ccccc1Cc1nnn[nH]1` [Example 118, 5,7-Dichloro-4-{[2-(1H-tetrazol-5-ylmethyl)-benzylcarbamoyl]-methoxy}-naphthalene-2-carboxylic acid] gave a melting point of 239 to 240 °C.

In turn, `O=C(COc1cc(C(=O)O)cc2cc(Cl)cc(Cl)c12)NCc1ccc(Cc2nnn[nH]2)cc1` [Example 120, 5,7-Dichloro-4-{[4-(1H-tetrazol-5-ylmethyl)-benzylcarbamoyl]-methoxy}-naphthalene-2-carboxylic acid] gave a melting point of 247 to 248 °C.

On to `COCC(Oc1cc(C(=O)O)cc2cc(Cl)cc(Cl)c12)C(=O)Nc1ccccc1OCC(=O)O` (stereo not drawn) [Example 131, 4-[1-(2-Carboxymethoxy-phenylcarbamoyl)-2-methoxy-ethoxy]-5,7-dichloro-naphthalene-2-carboxylic acid], for which the melting point was 224 to 225 °C.

For the molecule `CN1CCc2sc(NC(=O)COc3cc(C(=O)O)cc4cc(Cl)cc(Cl)c34)nc2C1` [Example 132, 5,7-Dichloro-4-[(5-methyl-4,5,6,7-tetrahydro-thiazolo[4,5-c]pyridin-2-ylcarbamoyl)-methoxy]-naphthalene-2-carboxylic acid], the melting point fell in the range of 242 to 243 °C.

On to `CC(Oc1cc(C(=O)O)cc2cc(Cl)cc(Cl)c12)C(=O)Nc1ccc(CO)cc1` (stereo not drawn) [Example 16, 5,7-Dichloro-4-[1-(4-hydroxymethylphenylcarbamoyl)-ethoxy]-naphthalene-2-carboxylic acid], for which the IC50 in data set [1] came out at 690 nM; in data set [2] it was 4660 nM.

As for `O=C(COc1cc(C(=O)O)cc2cc(Cl)cc(Cl)c12)NCc1cccc(-c2nnn[nH]2)c1` [Example 107, 5,7-Dichloro-4-{[3-(1H-tetrazol-5-yl)-benzylcarbamoyl]-methoxy}-naphthalene-2-carboxylic acid], the figures for the IC50 in data set [1] and in data set [2] were 139 nM and 1440 nM, respectively.

With `O=C(O)COc1cccc(NC(=O)COc2cc(C(=O)O)cc3cc(Cl)cc(Cl)c23)c1` [Example 2, 4-[(3-Carboxymethoxyphenylcarbamoyl)-methoxy]-5,7-dichloronaphthalene-2-carboxylic acid], the IC50 in data set [1] was determined as 414 nM; in data set [2] it was 3170 nM.

Turning to `O=C(COc1cc(C(=O)O)cc2cc(Cl)cc(Cl)c12)NCc1ccncc1` [Example 105, 5,7-Dichloro-4-{[(pyridin-4-ylmethyl)-carbamoyl]-methoxy}-naphthalene-2-carboxylic acid], the figures for the IC50 in data set [1] and in data set [2] were 1030 nM and 7090 nM, respectively.

Regarding `O=C(COc1cc(C(=O)O)cc2cc(Cl)cc(Cl)c12)NCc1cccnc1` [Example 104, 5,7-Dichloro-4-{[(pyridin-3-ylmethyl)-carbamoyl]-methoxy}-naphthalene-2-carboxylic acid], the IC50 in data set [1] turned out to be 186 nM; in data set [2], 1390 nM.

Take `COc1ccccc1N1CCC(Oc2cc(C(=O)O)cc3cc(Cl)cc(Cl)c23)C1=O` (stereo not drawn) [Example 75, 5,7-Dichloro-4-[1-(2-methoxy-phenyl)-2-oxo-pyrrolidin-3-yloxy]-naphthalene-2-carboxylic acid]: the values for the IC50 in data set [1] and in data set [2] were 1270 nM and 4960 nM, respectively.

With `CC(C)(Oc1ccccc1NC(=O)COc1cc(C(=O)O)cc2cc(Cl)cc(Cl)c12)C(=O)O` [Example 81, 4-{[2-(1-Carboxy-1-methyl-ethoxy)-phenylcarbamoyl]-methoxy}-5,7-dichloro-naphthalene-2-carboxylic acid], the results for the IC50 in data set [1] and in data set [2] were 1190 nM and 11300 nM, respectively.

As to `O=C(COc1cc(C(=O)O)cc2cc(Cl)cc(Cl)c12)Nc1ccc(Cc2nnn[nH]2)cc1` [Example 86, 5,7-Dichloro-4-{[4-(1H-tetrazol-5-ylmethyl)-phenylcarbamoyl]-methoxy}-naphthalene-2-carboxylic acid], the results for the IC50 in data set [1] and in data set [2] were 1840 nM and 5750 nM, respectively.

On to `O=C(COc1cc(C(=O)O)cc2cc(Cl)cc(Cl)c12)Nc1cccc(-c2nnn[nH]2)c1` [Example 101, 5,7-Dichloro-4-{[3-(1H-tetrazol-5-yl)-phenylcarbamoyl]-methoxy}-naphthalene-2-carboxylic acid], for which the IC50 came out at 344 nM in data set [1] and 2270 nM in data set [2].

Regarding `O=C(COc1cc(C(=O)O)cc2cc(Cl)cc(Cl)c12)Nc1cccc(OCc2nnn[nH]2)c1` [Example 92, 5,7-Dichloro-4-{[3-(1H-tetrazol-5-ylmethoxy)-phenylcarbamoyl]-methoxy}-naphthalene-2-carboxylic acid], the figures for the IC50 in data set [1] and in data set [2] were 656 nM and 3840 nM, respectively.

Regarding `NCc1ccc(OCC(=O)O)c(NC(=O)COc2cc(C(=O)O)cc3cc(Cl)cc(Cl)c23)c1` [Example 79, 4-[(5-Aminomethyl-2-carboxymethoxy-phenylcarbamoyl)-methoxy]-5,7-dichloro-naphthalene-2-carboxylic acid], the IC50 in data set [1] stood at 89 nM; in data set [2] it was 1650 nM.

Consider `CN(C(=O)COc1cc(C(=O)O)cc2cc(Cl)cc(Cl)c12)c1cccc(C(=O)O)c1` [Example 31, 4-{[(3-Carboxyphenyl)-methylcarbamoyl]-methoxy}-5,7-dichloronaphthalene-2-carboxylic acid], for which the half-maximal inhibitory concentration (IC50) in data set [1] was 1090 nM; in data set [2], 4750 nM.

For `O=C(COc1cc(C(=O)O)cc2cc(Cl)cc(Cl)c12)NCc1cccc(CO)c1` [Example 22, 5,7-Dichloro-4-[(3-hydroxymethylbenzylcarbamoyl)-methoxy]-naphthalene-2-carboxylic acid], the IC50 in data set [1] was 236 nM; in data set [2] it was 5400 nM.

The values above are taken from patent US20120220577A1, “GLYCINE B ANTAGONISTS” (Merz Pharma GmbH & Co KgaA, priority 2009, published 2012).
